In test [1] the target is T1, Nociceptin receptor (Cavia porcellus, UniProt P47748). In words: Antagonist activity at NOP receptor in Albino guinea pig ileum assessed as effect on electrically stimulated contractions. In kind it is functional, tissue-based. Particulars: read-out: pA2 (converted).
In test [2] the target is T2, Nociceptin receptor (Rattus norvegicus, UniProt P35370). The experiment in a line: Antagonist activity at NOP receptor in Sprague-Dawley rat vas deferens assessed as effect on electrically stimulated contractions. Particulars: read-out: pA2 (converted). In kind it is functional, tissue-based.
T2 sequence (P35370 whole entry): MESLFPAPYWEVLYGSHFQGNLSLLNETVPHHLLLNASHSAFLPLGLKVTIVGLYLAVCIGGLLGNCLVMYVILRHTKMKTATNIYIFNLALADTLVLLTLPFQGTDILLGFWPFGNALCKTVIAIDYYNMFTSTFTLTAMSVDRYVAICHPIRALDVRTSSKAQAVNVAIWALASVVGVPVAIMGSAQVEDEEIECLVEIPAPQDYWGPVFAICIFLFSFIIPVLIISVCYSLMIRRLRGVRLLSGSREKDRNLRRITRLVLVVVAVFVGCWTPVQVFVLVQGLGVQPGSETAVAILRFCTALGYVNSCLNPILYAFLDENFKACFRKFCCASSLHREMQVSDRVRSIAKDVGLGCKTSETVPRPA
In test [3] the target is T3, Nociceptin receptor (Mus musculus, UniProt P35377). In words: Antagonist activity at NOP receptor in Swiss mouse vas deferens by [35S]GTP-gamma-S binding assay. In kind it is functional, tissue-based. Particulars: read-out: pA2 (converted). Background: Binding of GTPγS marks nucleotide exchange on a G protein.
T3 sequence (P35377 whole entry): as the sequence (P35370 whole entry) above, with Y9F, S335A counted along it
For test [4], the target named is Nociceptin receptor (Cavia porcellus) (UniProt P47748). The experiment in a line: (§1) Agonist activity at NOP receptor in Albino guinea pig ileum assessed as effect on electrically stimulated contractions. The class given is functional, tissue-based.
Chain of Nociceptin receptor (Cavia porcellus) (P47748 whole entry): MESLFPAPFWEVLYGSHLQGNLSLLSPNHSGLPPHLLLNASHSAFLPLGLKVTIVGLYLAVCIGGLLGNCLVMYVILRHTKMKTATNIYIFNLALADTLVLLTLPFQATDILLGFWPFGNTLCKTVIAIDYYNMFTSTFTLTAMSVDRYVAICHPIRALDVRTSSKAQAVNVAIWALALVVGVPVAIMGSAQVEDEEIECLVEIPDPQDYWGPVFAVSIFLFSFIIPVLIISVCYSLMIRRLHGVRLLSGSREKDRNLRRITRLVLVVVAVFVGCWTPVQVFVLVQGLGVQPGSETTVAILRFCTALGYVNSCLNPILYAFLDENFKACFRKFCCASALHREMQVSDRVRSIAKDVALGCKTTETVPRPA
For test [5], the target named is Nociceptin receptor (Mus musculus) (UniProt P35377). The experiment in a line: (§2) Agonist activity at NOP receptor in Swiss mouse vas deferens by [35S]GTP-gamma-S binding assay. The class given is functional, tissue-based.
Chain of Nociceptin receptor (Mus musculus) (P35377 whole entry): as the sequence (P35370 whole entry) above, with Y9F, S335A counted along it
In test [6] the target is T1, Nociceptin receptor. Described as §1. In kind it is functional, tissue-based.
Test [7] addresses T3, Nociceptin receptor. The description is as §2. The class given is functional, tissue-based.
Test [8] concerns the target T3, Nociceptin receptor. In words: (§3) Agonist activity at NOP receptor in Swiss mouse vas deferens assessed as effect on electrically stimulated contractions. In kind it is functional, tissue-based.
Test [9] has as its target Nociceptin receptor (Mus musculus) (UniProt P35377). Described as §3. The class given is functional, tissue-based.
Test [10] addresses T2, Nociceptin receptor. The experiment in a line: Agonist activity at NOP receptor in Sprague-Dawley rat vas deferens assessed as effect on electrically stimulated contractions. The class given is functional, tissue-based.
Test [11] concerns the target Mu-type opioid receptor (Homo sapiens, UniProt P35372). In words: Displacement of [3H]diprenorphine from human recombinant mu opioid receptor expressed in CHO cells. The class given is cell-based. Background: Loss of bound radioactivity is the signal in a displacement assay; it reports binding, not function.
Test [12] concerns the target Delta-type opioid receptor (Homo sapiens, UniProt P41143). The experiment in a line: Displacement of [3H]diprenorphine from human recombinant delta opioid receptor expressed in CHO cells. In kind it is cell-based.

As a reminder, the Emax is the greatest response seen or fitted, relative to the assay's reference. Broadly, the EC50 is the concentration at which the effect is half-maximal. As a reminder, the Ki is the dissociation constant of the complex between target and ligand, obtained from inhibition or displacement.

Calls of active or inactive are those of the source. No cut-off for these calls is given here. *1 amine or outer side, *2 acyl side, *3 side chain or, on linkers, in order; H or OH if unused. Where a SMILES comes first, the peptide text is derived from it. [ ]: non-standard residue; d: D form. X1 = N[C@@H](Cc1ccccc1)CN(CC(=O)[*:2])[*:1]; Phe(4-F) = N[C@@H](Cc1ccc(F)cc1)C(=O)O; Aib = CC(C)(N)C(=O)O Bounds are passed on as bounds.

T1 sequence (P47748 whole entry): as the sequence (P47748 whole entry) above
Chain of Mu-type opioid receptor (P35372 whole entry): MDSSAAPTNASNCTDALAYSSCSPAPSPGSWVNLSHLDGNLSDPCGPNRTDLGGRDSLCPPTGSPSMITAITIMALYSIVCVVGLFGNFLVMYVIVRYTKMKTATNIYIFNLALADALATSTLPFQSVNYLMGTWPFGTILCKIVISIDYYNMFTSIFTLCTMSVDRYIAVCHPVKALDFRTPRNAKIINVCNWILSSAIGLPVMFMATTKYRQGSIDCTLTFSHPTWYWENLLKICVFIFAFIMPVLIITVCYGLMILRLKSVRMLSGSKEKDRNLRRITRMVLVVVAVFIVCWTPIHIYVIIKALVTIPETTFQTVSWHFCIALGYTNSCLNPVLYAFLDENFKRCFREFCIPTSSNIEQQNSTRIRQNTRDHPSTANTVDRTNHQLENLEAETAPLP
Chain of Delta-type opioid receptor (P41143 whole entry): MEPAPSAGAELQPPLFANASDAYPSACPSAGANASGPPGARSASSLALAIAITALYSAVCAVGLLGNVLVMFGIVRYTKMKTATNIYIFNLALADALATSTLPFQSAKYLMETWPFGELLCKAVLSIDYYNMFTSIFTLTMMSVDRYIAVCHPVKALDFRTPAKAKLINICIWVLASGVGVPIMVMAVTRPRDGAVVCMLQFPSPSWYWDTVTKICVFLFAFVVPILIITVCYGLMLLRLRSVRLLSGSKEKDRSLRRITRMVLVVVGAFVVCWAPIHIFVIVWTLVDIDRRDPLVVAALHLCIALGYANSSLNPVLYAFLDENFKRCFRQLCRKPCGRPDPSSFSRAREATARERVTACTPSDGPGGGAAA

With `C[C@H](NC(=O)[C@H](CO)NC(=O)[C@H](CCCCN)NC(=O)[C@H](CCCNC(=N)N)NC(=O)C(C)(C)NC(=O)CNC(=O)[C@@H](NC(=O)[C@H](Cc1ccc(F)cc1)NC(=O)CNC(=O)CNC[C@@H](N)Cc1ccccc1)[C@@H](C)O)C(=O)N[C@@H](CCCNC(=N)N)C(=O)N[C@@H](CCCCN)C(=O)N[C@@H](CCCNC(=N)N)C(=O)N[C@@H](CCCCN)C(=O)N[C@@H](CC(N)=O)C(=O)N[C@@H](CCC(N)=O)C(N)=O` (H-[X1]G[Phe(4-F)]TG[Aib]RKSARKRKNQ-NH2), the results for the Kb in test [1], in test [2] and in test [3] were 0.316 nM, 0.603 nM and 0.794 nM, respectively.
Take `CC(C)C[C@H](NC(=O)[C@H](CCCCN)NC(=O)[C@H](CCCNC(=N)N)NC(=O)[C@H](C)NC(=O)[C@H](CO)NC(=O)[C@H](CCCCN)NC(=O)[C@H](CCCNC(=N)N)NC(=O)[C@H](C)NC(=O)CNC(=O)[C@@H](NC(=O)[C@H](Cc1ccccc1)NC(=O)CNC(=O)CNC(=O)[C@@H](N)Cc1ccccc1)[C@@H](C)O)C(=O)N[C@@H](C)C(=O)N[C@@H](CC(N)=O)C(=O)N[C@@H](CCC(N)=O)C(=O)O`: the maximal effect (Emax) in test [4] turned out to be 45%; in test [5], 87%.
As to `C[C@H](NC(=O)[C@H](CO)NC(=O)[C@H](CCCCN)NC(=O)[C@H](CCCNC(=N)N)NC(=O)C(C)(C)NC(=O)CNC(=O)[C@@H](NC(=O)[C@H](Cc1ccccc1)NC(=O)CNC(=O)CNC(=O)[C@@H](N)Cc1ccccc1)[C@@H](C)O)C(=O)N[C@@H](CCCNC(=N)N)C(=O)N[C@@H](CCCCN)C(=O)N[C@@H](CCCNC(=N)N)C(=O)N[C@@H](CCCCN)C(=O)N[C@@H](CC(N)=O)C(=O)N[C@@H](CCC(N)=O)C(N)=O`, the result in test [4] and in [5] was inactive.
As for `CC(C)C[C@H](NC(=O)[C@H](CCCCN)NC(=O)[C@H](CCCN=C(N)N)NC(=O)[C@H](C)NC(=O)[C@H](CO)NC(=O)[C@H](CCCCN)NC(=O)[C@H](CCCN=C(N)N)NC(=O)[C@H](C)NC(=O)CNC(=O)[C@@H](NC(=O)[C@H](Cc1ccccc1)NC(=O)CNC(=O)CNC(=O)[C@@H](N)Cc1ccccc1)[C@@H](C)O)C(=O)N[C@@H](C)C(=O)N[C@@H](CC(N)=O)C(=O)N[C@@H](CCC(N)=O)C(=O)O` [NOCICEPTIN], the EC50 in test [6] was 8.91 nM; in test [7] it was 35.5 nM.
For the compound `CC(C)C[C@H](NC(=O)[C@H](CCCCN)NC(=O)[C@H](CCCNC(=N)N)NC(=O)C(C)(C)NC(=O)[C@H](CO)NC(=O)[C@H](CCCCN)NC(=O)[C@H](CCCNC(=N)N)NC(=O)[C@H](C)NC(=O)CNC(=O)[C@@H](NC(=O)[C@H](Cc1ccccc1)NC(=O)CNC(=O)CNC(=O)[C@@H](N)Cc1ccccc1)[C@@H](C)O)C(=O)N[C@@H](C)C(=O)N[C@@H](CC(N)=O)C(=O)N[C@@H](CCC(N)=O)C(N)=O`, the EC50 in test [8] is 8.91 nM. Besides, the Emax in test [9] worked out at 91%.
For `CCC(CC)(NC(=O)CNC(=O)[C@@H](NC(=O)[C@H](Cc1ccccc1)NC(=O)CNC(=O)CNC(=O)[C@@H](N)Cc1ccccc1)[C@@H](C)O)C(=O)N[C@@H](CCCNC(=N)N)C(=O)N[C@@H](CCCCN)C(=O)N[C@@H](CO)C(=O)N[C@@H](C)C(=O)N[C@@H](CCCNC(=N)N)C(=O)N[C@@H](CCCCN)C(=O)N[C@@H](CC(C)C)C(=O)N[C@@H](C)C(=O)N[C@@H](CC(N)=O)C(=O)N[C@@H](CCC(N)=O)C(N)=O`, in that order: 12.3 nM and 89%.
For `C[C@H](NC(=O)[C@H](CO)NC(=O)[C@H](CCCCN)NC(=O)[C@H](CCCNC(=N)N)NC(=O)C(C)(C)NC(=O)CNC(=O)[C@@H](NC(=O)[C@H](Cc1ccc(F)cc1)NC(=O)CNC(=O)CNC(=O)[C@@H](N)Cc1ccccc1)[C@@H](C)O)C(=O)N[C@@H](CCCNC(=N)N)C(=O)N[C@@H](CCCCN)C(=O)N[C@@H](CCCNC(=N)N)C(=O)N[C@@H](CCCCN)C(=O)N[C@@H](CC(N)=O)C(=O)N[C@@H](CCC(N)=O)C(N)=O`, the EC50 in test [6] is 0.676 nM; in [10], 4.57 nM; in [7], 0.575 nM. Further, the values for the Emax in test [4] and in [5] were 32% and 84%, respectively.
In the case of `CC(C)C[C@H](NC(=O)[C@H](CCCCN)NC(=O)[C@H](CCCNC(=N)N)NC(=O)C1(NC(=O)[C@H](CO)NC(=O)[C@H](CCCCN)NC(=O)[C@H](CCCNC(=N)N)NC(=O)[C@H](C)NC(=O)CNC(=O)[C@@H](NC(=O)[C@H](Cc2ccccc2)NC(=O)CNC(=O)CNC(=O)[C@@H](N)Cc2ccccc2)[C@@H](C)O)CCCC1)C(=O)N[C@@H](C)C(=O)N[C@@H](CC(N)=O)C(=O)N[C@@H](CCC(N)=O)C(N)=O`, in test [8], the EC50 was 8.32 nM. Further, the Emax in test [9] stood at 89%.
For `C[C@H](NC(=O)[C@H](CO)NC(=O)[C@H](CCCCN)NC(=O)[C@H](CCCNC(=N)N)NC(=O)C(C)(C)NC(=O)CNC(=O)[C@@H](NC(=O)[C@H](Cc1ccccc1)NC(=O)CNC(=O)CNC(=O)CNCc1ccccc1)[C@@H](C)O)C(=O)N[C@@H](CCCNC(=N)N)C(=O)N[C@@H](CCCCN)C(=O)N[C@@H](CCCNC(=N)N)C(=O)N[C@@H](CCCCN)C(=O)N[C@@H](CC(N)=O)C(=O)N[C@@H](CCC(N)=O)C(N)=O`, the Kb in test [1] is 46.8 nM; in test [2] it was 87.1 nM; in test [3], 34.7 nM. Also, the Ki in test [11] and in test [12] was more than 10000 nM throughout.
Regarding `CCCC(CCC)(NC(=O)[C@H](CO)NC(=O)[C@H](CCCCN)NC(=O)[C@H](CCCNC(=N)N)NC(=O)[C@H](C)NC(=O)CNC(=O)[C@@H](NC(=O)[C@H](Cc1ccccc1)NC(=O)CNC(=O)CNC(=O)[C@@H](N)Cc1ccccc1)[C@@H](C)O)C(=O)N[C@@H](CCCNC(=N)N)C(=O)N[C@@H](CCCCN)C(=O)N[C@@H](CC(C)C)C(=O)N[C@@H](C)C(=O)N[C@@H](CC(N)=O)C(=O)N[C@@H](CCC(N)=O)C(N)=O`, the EC50 in test [8] is 29.5 nM. For the same compound, the Emax in test [9] is 86%.

Source of the values: ChEMBL document CHEMBL1148695, “Synthesis and biological activity of nociceptin/orphanin FQ analogues substituted in position 7 or 11 with Calpha,alpha-dialkylated amino acids” (Bioorg Med Chem, 2007).
